Results from ChEMBL document CHEMBL5356964, “Design, synthesis and anti-rheumatoid arthritis activity of target TLR4 inhibitors” (Bioorg Med Chem, 2024).
Activity calls are given as the source filed them. No cut-off for these calls is given here.

Assays:
[1] = tested on: RAW264.7; assay: Antiarthritic activity against LPS-induced mouse RAW264.7 cells assessed as downregulation of NF-kappaB mRNA expression at 1 uM preincubated with compound for 24 hrs followed by LPS-induction and measured after 24 hrs by RT-PCR analysis; type: functional, cell-based; conditions: time 48.0 hrs
[2] = tested on: RAW264.7; assay: Antiarthritic activity against LPS-induced mouse RAW264.7 cells assessed as downregulation of TNF-alpha expression at 1 uM preincubated with compound for 24 hrs followed by LPS-induction and measured after 24 hrs by Western blot analysis; type: functional, cell-based; conditions: time 48.0 hrs
[3] = tested on: RAW264.7; assay: Antiproliferative activity against LPS-induced- mouse RAW264.7 cells assessed as decrease in number of cells at 1 uM pretreated with compound for 24 hrs followed by LPS induction and measured after 24 hrs; type: functional, cell-based; conditions: time 48.0 hrs
[4] = tested on: RAW264.7; assay: Antiarthritic activity against LPS-induced mouse RAW264.7 cells assessed as reduction in TNF-alpha level at 1 uM incubated for 24 hrs (Rvb 653.3 +/- 70.1 pg/L); type: functional
[5] = tested on: RAW264.7; assay: Antiarthritic activity against LPS-induced mouse RAW264.7 cells assessed as reduction in IL-6 level at 1 uM incubated for 24 hrs (Rvb 231.1 +/- 24.2 pg/L); type: functional
[6] = tested on: RAW264.7; assay: Antiarthritic activity against LPS-induced mouse RAW264.7 cells assessed as downregulation of JAK2 mRNA expression at 1 uM preincubated with compound for 24 hrs followed by LPS-induction and measured after 24 hrs by RT-PCR analysis; type: functional, cell-based; conditions: time 48.0 hrs
[7] = Antiproliferative activity against rat Synovial cell assessed as inhibition of cell growth incubated for 48 hrs by CCK-8 assay; type: functional, cell-based
[8] = tested on: RAW264.7; assay: Antiarthritic activity against LPS-induced mouse RAW264.7 cells assessed as downregulation of TLR4 expression at 1 uM preincubated with compound for 24 hrs followed by LPS-induction and measured after 24 hrs by immunofluorescence analysis; type: functional, cell-based; conditions: time 48.0 hrs
[9] = tested on: RAW264.7; assay: Antiarthritic activity against LPS-induced mouse RAW264.7 cells assessed as downregulation of STAT3 expression at 1 uM preincubated with compound for 24 hrs followed by LPS-induction and measured after 24 hrs by immunofluorescence analysis; type: functional, cell-based; conditions: time 48.0 hrs
[10] = tested on: RAW264.7; assay: Antiarthritic activity against LPS-induced mouse RAW264.7 cells assessed as downregulation of TNF-alpha expression at 1 uM preincubated with compound for 24 hrs followed by LPS-induction and measured after 24 hrs by immunofluorescence analysis; type: functional, cell-based; conditions: time 48.0 hrs
[11] = tested on: RAW264.7; assay: Antiarthritic activity against LPS-induced mouse RAW264.7 cells assessed as downregulation of NF-kappaB expression at 1 uM preincubated with compound for 24 hrs followed by LPS-induction and measured after 24 hrs by Western blot analysis; type: functional, cell-based; conditions: time 48.0 hrs
[12] = tested on: RAW264.7; assay: Antiproliferative activity against LPS-induced- mouse RAW264.7 cells assessed as inhibition of cell growth incubated for 24 hrs by CCK-8 assay; type: functional, cell-based; conditions: RAW264.7, 24 h
[13] = tested on: RAW264.7; assay: Antiarthritic activity against LPS-induced mouse RAW264.7 cells assessed as downregulation of TLR4 expression at 1 uM preincubated with compound for 24 hrs followed by LPS-induction and measured after 24 hrs by Western blot analysis; type: functional, cell-based; conditions: time 48.0 hrs
[14] = tested on: RAW264.7; assay: Antiarthritic activity against LPS-induced mouse RAW264.7 cells assessed as downregulation of NF-kappaB expression at 1 uM preincubated with compound for 24 hrs followed by LPS-induction and measured after 24 hrs by immunofluorescence analysis; type: functional, cell-based; conditions: time 48.0 hrs
[15] = tested on: RAW264.7; assay: Antiarthritic activity against LPS-induced mouse RAW264.7 cells assessed as reduction in IL-1beta level at 1 uM pretreated with compound for 24 hrs followed by LPS induction and measured after 24 hrs; type: functional, cell-based; conditions: time 48.0 hrs
[16] = tested on: RAW264.7; assay: Antiarthritic activity against LPS-induced mouse RAW264.7 cells assessed as reduction in IL-6 level at 1 uM pretreated with compound for 24 hrs followed by LPS induction and measured after 24 hrs; type: functional, cell-based; conditions: time 48.0 hrs
[17] = tested on: RAW264.7; assay: Antiproliferative activity against LPS-induced- mouse RAW264.7 cells assessed as cell survival at 1 uM pretreated with compound for 24 hrs followed by LPS induction and measured after 24 hrs; type: functional, cell-based; conditions: time 48.0 hrs
[18] = tested on: RAW264.7; assay: Antiarthritic activity against LPS-induced mouse RAW264.7 cells assessed as downregulation of JAK2 expression at 1 uM preincubated with compound for 24 hrs followed by LPS-induction and measured after 24 hrs by immunofluorescence analysis; type: functional, cell-based; conditions: time 48.0 hrs
[19] = tested on: RAW264.7; assay: Antiarthritic activity against LPS-induced mouse RAW264.7 cells assessed as downregulation of STAT3 mRNA expression at 1 uM preincubated with compound for 24 hrs followed by LPS-induction and measured after 24 hrs by RT-PCR analysis; type: functional, cell-based; conditions: time 48.0 hrs
[20] = tested on: RAW264.7; assay: Antiarthritic activity against LPS-induced mouse RAW264.7 cells assessed as downregulation of TNF-alpha mRNA expression at 1 uM preincubated with compound for 24 hrs followed by LPS-induction and measured after 24 hrs by RT-PCR analysis; type: functional, cell-based; conditions: time 48.0 hrs
[21] = tested on: RAW264.7; assay: Antiarthritic activity against LPS-induced mouse RAW264.7 cells assessed as downregulation of TLR4 mRNA expression at 1 uM preincubated with compound for 24 hrs followed by LPS-induction and measured after 24 hrs by RT-PCR analysis; type: functional, cell-based; conditions: time 48.0 hrs
[22] = tested on: RAW264.7; assay: Antiarthritic activity against LPS-induced mouse RAW264.7 cells assessed as reduction in TNF-alpha level at 1 uM pretreated with compound for 24 hrs followed by LPS induction and measured after 24 hrs; type: functional, cell-based; conditions: time 48.0 hrs
[23] = tested on: RAW264.7; assay: Antiarthritic activity against LPS-induced mouse RAW264.7 cells assessed as reduction in IL-1beta level at 1 uM incubated for 24 hrs (Rvb 665.1 +/- 82.1 pg/L); type: functional
[24] = target: T1, Toll-like receptor 4 (Homo sapiens, UniProt O00206); assay: Inhibition of TLR4 (unknown origin) using TMB as substrate incubated for 90 mins
[25] = tested on: Mus musculus; assay: Antiarthritic activity against collagen-induced rheumatoid arthritis mouse model assessed as reduction in clinical score at 100 mg/kg administered for 15 days; type: functional, organism-based; conditions: time 15.0 day
[26] = target: T1, Toll-like receptor 4; assay: Potency index, ratio of methotrexate IC50 to test compound IC50 for inhibition of TLR4 (unknown origin) using TMB as substrate incubated for 90 mins
[27] = tested on: RAW264.7; assay: Antiarthritic activity against LPS-induced mouse RAW264.7 cells assessed as downregulation of JAK2 expression at 1 uM preincubated with compound for 24 hrs followed by LPS-induction and measured after 24 hrs by Western blot analysis; type: functional, cell-based; conditions: time 48.0 hrs
[28] = tested on: Mus musculus; assay: Antiarthritic activity against collagen-induced rheumatoid arthritis mouse model assessed as reduction in paw swelling at 100 mg/kg administered for 15 days and measured on day 28; type: functional, organism-based; conditions: time 28.0 day
[29] = tested on: Mus musculus; assay: Antiarthritic activity against collagen-induced rheumatoid arthritis mouse model assessed as reduction in IL-6 level at 100 mg/kg administered for 15 days by ELISA analysis; type: functional, organism-based; conditions: time 15.0 day
[30] = tested on: RAW264.7; assay: Antiarthritic activity against LPS-induced mouse RAW264.7 cells assessed as downregulation of STAT3 expression at 1 uM preincubated with compound for 24 hrs followed by LPS-induction and measured after 24 hrs by Western blot analysis; type: functional, cell-based; conditions: time 48.0 hrs
[31] = tested on: Mus musculus; assay: Antiarthritic activity against collagen-induced rheumatoid arthritis mouse model assessed as reduction in TNF-alpha level at 100 mg/kg administered for 15 days by ELISA analysis; type: functional, organism-based; conditions: time 15.0 day
[32] = tested on: Mus musculus; assay: Antiarthritic activity against collagen-induced rheumatoid arthritis mouse model assessed as reduction in IL-1beta level at 100 mg/kg administered for 15 days by ELISA analysis; type: functional, organism-based; conditions: time 15.0 day

T1 sequence (O00206 whole entry): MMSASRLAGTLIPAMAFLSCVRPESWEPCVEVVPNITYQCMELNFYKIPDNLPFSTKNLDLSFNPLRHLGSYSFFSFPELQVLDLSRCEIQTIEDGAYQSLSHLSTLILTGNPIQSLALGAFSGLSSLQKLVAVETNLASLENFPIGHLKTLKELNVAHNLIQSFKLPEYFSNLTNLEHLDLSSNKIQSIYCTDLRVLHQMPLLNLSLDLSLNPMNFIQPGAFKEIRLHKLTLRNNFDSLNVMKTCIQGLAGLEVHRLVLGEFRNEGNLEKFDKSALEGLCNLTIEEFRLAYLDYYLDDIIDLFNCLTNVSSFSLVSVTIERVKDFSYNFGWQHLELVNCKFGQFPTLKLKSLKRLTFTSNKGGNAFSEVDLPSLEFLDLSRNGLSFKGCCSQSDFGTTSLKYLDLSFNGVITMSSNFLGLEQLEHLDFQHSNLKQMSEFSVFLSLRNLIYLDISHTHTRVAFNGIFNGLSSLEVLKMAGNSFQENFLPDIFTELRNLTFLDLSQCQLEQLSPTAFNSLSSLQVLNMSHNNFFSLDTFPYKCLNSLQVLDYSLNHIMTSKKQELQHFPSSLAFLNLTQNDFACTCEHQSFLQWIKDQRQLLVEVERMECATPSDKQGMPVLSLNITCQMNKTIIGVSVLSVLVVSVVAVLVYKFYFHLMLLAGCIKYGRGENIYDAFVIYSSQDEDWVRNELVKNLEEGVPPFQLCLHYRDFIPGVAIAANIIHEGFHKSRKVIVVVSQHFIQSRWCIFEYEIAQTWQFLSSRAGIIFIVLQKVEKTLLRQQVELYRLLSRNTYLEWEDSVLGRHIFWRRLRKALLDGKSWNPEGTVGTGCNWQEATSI

SMILES | Activity [1] | Activity [2] | Activity [3] | Activity [4] [pg/L] | Activity [5] [pg/L] | Activity [6] | IC50 [7] [nM] | Activity [8] | Activity [9] | Activity [10] | Activity [11] | IC50 [12] [nM] | Activity [13] | Activity [14] | Activity [15] | Activity [16] | Activity [17] | Activity [18] | Activity [23] [pg/L] | IC50 [24] [nM] | other results
CN(Cc1cnc2nc(N)nc(N)c2n1)c1ccc(C(=O)N[C@@H](CCC(=O)O)C(=O)O)cc1 [METHOTREXATE] | Active | Active | Active | 235.3 | 115.3 | inactive | 2330 | Active | inactive | Active | Active | 1230 | Active | Active | Active | Active | Active | inactive | 334.5 |  | Activity [19]: inactive; Activity [20]: Active; Activity [21]: Active; Activity [22]: Active
CC(=O)CC(=O)C1CC(C)CCC1=O (stereo not given) |  |  |  | 399.1 | 176.6 |  | 3320 |  |  |  |  | 1690 |  |  |  |  |  |  | 457.8 | 1150 | 
CC(=O)CC(=O)C1CC(C(=O)O)CCC1=O (stereo not given) |  |  |  |  |  |  | 5310 |  |  |  |  | 2710 |  |  |  |  |  |  |  |  | 
CC(=O)CC(=O)C1CC(NC(C)=O)CCC1=O (stereo not given) |  |  |  | 365.2 | 158.9 |  | 2610 |  |  |  |  | 1330 |  |  |  |  |  |  | 407.2 | 1210 | 
CC(=O)CC(=O)C1CC(O)CCC1=O (stereo not given) | Active | Active | Active | 151.5 | 90.2 | Active | 1210 | Active | Active | Active | Active | 730 | Active | Active | Active | Active | Active | Active | 258.3 | 430 | Activity [25]: Active; Ratio IC50 [26]: 2.4; Activity [27]: Active; Activity [28]: Active; Activity [29]: Active; Activity [30]: Active; Activity [31]: Active; Activity [32]: Active; Activity [19]: Active; Activity [20]: Active; Activity [21]: Active; Activity [22]: Active
CC(=O)CC(=O)C1CC(Cl)CCC1=O (stereo not given) |  |  |  | 350.2 | 133.5 |  | 2450 |  |  |  |  | 1320 |  |  |  |  |  |  | 385.1 | 1120 | 
